According to patent US10696651B2, “Heterocyclic compound” (Takeda Pharmaceutical Company Limited, priority 2016, dated 2020):

Columns and labels:
[1] = tested on: ATF4 expression in CCRF-CEM tumor; assay: In vivo ATF4 expression suppression assay (Western blot of CCRF-CEM xenograft tumor) in the presence of L-asparaginase; details: compound 10 mg/kg oral 8 hr before tumor removal, L-asparaginase 1000 U/kg s.c. 32 hr and 8 hr before, CCRF-CEM xenograft in SCID mouse
Text: One million human acute lymphoblastic leukemia cell lines CCRF-CEM obtained from ATCC (American Type Culture Collection) were suspended in Matrigel solution (Corning) and implanted subcutaneously into 6-week-old female SCID mouse (CLEA Japan, Inc.) by injection. The mice in which the tumor engrafted to a size of about 200-1000 mm^3 tumor volume after transplantation were selected and 3 mice per group were used for the experiment. L-asparaginase (Kyowa Hakko Kogyo Co., Ltd.) was subcutaneously administered at a dose of 1000 U/kg 32 hr and 8 hr before tumor removal. A 0.5% methylcellulose suspension of the compound was orally administered at a dose of 10 mg/kg 8 hr before tumor removal. After tumor removal, protein was extracted using Lysing Matrix I tube (MP Biomedicals) containing a protein extract (10% glycerol, 1% sodium dodecyl sulfate, 62.5 mM Tris-HCl [pH 7.5], protease and phosphatase inhibitors [Complete mini and PhosSTOP, Sigma-Aldrich Co. LLC.]) and subjected to Western blot.
Protein extract solution was subjected to protein quantification with BCA Protein Assay Kit (Thermo Scientific), electrophoresed on 7.5-15% SDS-PAGE gel (DRC), and protein in the gel was transferred to PVDF membrane. The membrane was blocked with Starting Block T20 (PBS) Blocking Buffer (Thermo Scientific). […] Thereafter, chemiluminescence was performed using ImmunoStar LD (Wako Pure Chemical Industries, Ltd.), and luminescence intensity was measured by LAS-3000 image analyzer (Fuji Film Co., Ltd.). Furthermore, the expression level of ATF4 was digitized by quantifying the luminescence intensity using Multi Gauge Ver. […]
Based on the ATF4 expression level of the control group orally administered with 0.5% methylcellulose suspension free of Example compound and the treatment group orally administered with Example compound suspension, the ATF4 expression inhibition ratio (%) of the test compound at a compound dose 10 mg/kg was calculated by the following formula and the results thereof are shown in Table 6. […]

[2] = target: T1, human GCN2 full-length protein (Homo sapiens, UniProt Q9P2K8); assay: GCN2 enzyme inhibition assay (LanthaScreen TR-FRET); type: biochemical; details: GCN2 enzyme inhibitory activity at compound concentration of 3 μM; Table 3-1; 3 µM
T1 construct: purchased Carna Biosciences, Inc
Outline: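 Full-length human GCN2 was preincubated with compound for 1 hr at room temperature, then reacted for 1 hr with substrate and ATP added from a 570 μM ATP / 390 nM substrate solution (stock concentrations). Phosphorylation was detected by TR-FRET with a terbium-labelled anti-eIF2alpha antibody after 1 hr, with enzyme-free wells as control.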

[3] = tested on: osteosarcoma cell line U-2-OS; assay: In vitro cell proliferation inhibition assay (CellTiter-Glo, low amino acid media); type: cell-based; details: McCoy's 5A low amino acid media, 72 hr, Table 4-1
Outline: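 Cells seeded at 1000 per well in McCoy's 5A low amino acid medium (25% amino acid content), then exposed to compound for 72 h at 37° C., 5% CO2. ATP measured by CellTiter-Glo luminescence. Inhibition (%) at 100 nM calculated relative to pre-treatment and untreated control wells.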

[4] = tested on: human acute lymphoblastic leukemia cells CCRF-CEM; assay: In vivo tumor proliferation inhibitory assay with combined use of asparaginase (CCRF-CEM xenograft); details: CCRF-CEM xenograft in SCID mouse
Text: One million human acute lymphoblastic leukemia cells CCRF-CEM obtained from ATCC (American Type Culture Collection) were suspended in Matrigel solution (Corning) and implanted subcutaneously into 6-week-old female SCID mouse (CLEA Japan, Inc.) by injection. The mice in which the tumor engrafted to a size of about 200 mm^3 tumor volume after transplantation were selected and 5 mice per group were used for the experiment. A 0.5% methylcellulose suspension of the compound was orally administered twice per day for 9 days. Each compound was administered twice per day and the dose was 10 mg/kg for Example 14 and Example 7, and 6 mg/kg for Example 4. L-asparaginase (Kyowa Hakko Kogyo Co., Ltd.) was subcutaneously administered once per day at a dose of 1000 U/kg. Tumor diameter was measured one day before start of the administration and day 9 of the administration, and the tumor volume was calculated by the formula 1. tumor volume=major axis×minor axis×minor axis×(½) Formula 1
Tumor proliferation inhibitory rate (%) was calculated by the formula 2. tumor proliferation inhibitory rate (%)=(1−(T9−T0)/(C9−C0))×100 Formula 2 T9: average tumor volume of test drug administration group on day 9 of administration, T0: average tumor volume of test drug administration group one day before start of administration, C9: average tumor volume of control group on day 9 of administration, C0: average tumor volume of control group one day before start of administration

T1 sequence (Q9P2K8 whole entry): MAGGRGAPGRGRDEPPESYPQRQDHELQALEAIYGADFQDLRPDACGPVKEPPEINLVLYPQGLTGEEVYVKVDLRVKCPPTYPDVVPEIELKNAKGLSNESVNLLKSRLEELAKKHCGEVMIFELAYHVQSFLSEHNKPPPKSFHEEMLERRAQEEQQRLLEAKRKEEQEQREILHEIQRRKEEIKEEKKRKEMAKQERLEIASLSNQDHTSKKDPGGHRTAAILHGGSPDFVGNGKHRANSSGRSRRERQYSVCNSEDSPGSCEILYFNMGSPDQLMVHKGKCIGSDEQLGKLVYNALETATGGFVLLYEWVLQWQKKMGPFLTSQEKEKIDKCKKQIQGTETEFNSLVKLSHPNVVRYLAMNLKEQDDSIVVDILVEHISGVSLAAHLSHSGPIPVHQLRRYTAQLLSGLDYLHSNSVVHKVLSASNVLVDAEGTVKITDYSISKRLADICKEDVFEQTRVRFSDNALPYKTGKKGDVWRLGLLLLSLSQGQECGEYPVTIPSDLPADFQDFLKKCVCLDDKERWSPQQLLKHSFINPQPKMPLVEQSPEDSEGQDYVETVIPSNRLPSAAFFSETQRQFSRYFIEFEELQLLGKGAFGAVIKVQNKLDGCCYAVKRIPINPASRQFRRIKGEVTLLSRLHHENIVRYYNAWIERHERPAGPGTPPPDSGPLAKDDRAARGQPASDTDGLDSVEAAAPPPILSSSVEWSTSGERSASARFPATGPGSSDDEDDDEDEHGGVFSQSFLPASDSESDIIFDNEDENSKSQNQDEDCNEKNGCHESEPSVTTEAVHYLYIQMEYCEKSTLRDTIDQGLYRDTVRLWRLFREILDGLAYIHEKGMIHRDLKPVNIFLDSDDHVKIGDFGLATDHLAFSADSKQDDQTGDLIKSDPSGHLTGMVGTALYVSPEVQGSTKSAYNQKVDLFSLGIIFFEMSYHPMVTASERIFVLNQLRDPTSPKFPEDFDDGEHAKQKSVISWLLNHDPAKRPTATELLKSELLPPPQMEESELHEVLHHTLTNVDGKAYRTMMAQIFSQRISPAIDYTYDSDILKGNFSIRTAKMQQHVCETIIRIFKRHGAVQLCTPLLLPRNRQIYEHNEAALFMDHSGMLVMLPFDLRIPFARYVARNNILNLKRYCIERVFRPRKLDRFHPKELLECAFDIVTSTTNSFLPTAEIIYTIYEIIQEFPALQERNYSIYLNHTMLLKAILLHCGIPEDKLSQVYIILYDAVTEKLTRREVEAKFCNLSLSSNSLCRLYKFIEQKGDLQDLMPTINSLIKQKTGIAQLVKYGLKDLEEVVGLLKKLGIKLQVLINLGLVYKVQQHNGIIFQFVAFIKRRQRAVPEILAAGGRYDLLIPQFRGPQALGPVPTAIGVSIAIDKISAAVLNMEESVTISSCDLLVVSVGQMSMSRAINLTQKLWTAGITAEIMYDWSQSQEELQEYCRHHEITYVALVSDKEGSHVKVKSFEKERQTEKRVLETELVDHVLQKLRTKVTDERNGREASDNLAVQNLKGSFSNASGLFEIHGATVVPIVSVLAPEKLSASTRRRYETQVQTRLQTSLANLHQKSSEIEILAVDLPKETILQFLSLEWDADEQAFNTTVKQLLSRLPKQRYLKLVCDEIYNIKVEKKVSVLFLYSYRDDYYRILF

inhibitory rate [2]: 98%
Compound: O=S(=O)(Nc1ccc(F)c(C#Cc2cnc3[nH]ncc3c2)c1F)c1cc(Cl)ccc1Cl [Example 14, 2,5-dichloro-N-(2,4-difluoro-3-(1H-pyrazolo[3,4-b]pyridin-5-ylethynyl)phenyl)benzenesulfonamide]
in vivo ATF4 expression inhibition ratio (%) [1]: 63%
inhibitory rate [3]: 42%
in vivo tumor proliferation inhibitory rate (%), GCN2 inhibitor ([4]; GCN2 inhibitor alone, 10 mg/kg oral twice per day for 9 days): 1%
in vivo tumor proliferation inhibitory rate (%), combined use ([4]; compound 10 mg/kg oral twice per day for 9 days combined with L-asparaginase 1000 U/kg s.c. once per day): 64%
